Reference: PubChem BioAssay (NCI)
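Following 48 hours of exposure in 96-well plates, responses at five concentrations were used to interpolate endpoints linearly. Definition used: TGI = concentration required for complete inhibition of growth.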

Tests used:
Assay in all cases: DTP human tumour cell line panel, 48 h
786-0 renal = system: 786-0 renal
A498 renal = system: A498 renal
A549 NSCLC = system: A549 NSCLC
ACHN renal = system: ACHN renal
BT-549 breast = system: BT-549 breast
CAKI-1 renal = system: CAKI-1 renal
CCRF-CEM leukemia = system: CCRF-CEM leukemia
COLO 205 colon = system: COLO 205 colon
DU-145 prostate = system: DU-145 prostate
EKVX NSCLC = system: EKVX NSCLC
HCT-116 colon = system: HCT-116 colon
HCT-15 colon = system: HCT-15 colon
HL-60(TB) leukemia = system: HL-60(TB) leukemia
HOP-62 NSCLC = system: HOP-62 NSCLC
HOP-92 NSCLC = system: HOP-92 NSCLC
HS 578T breast = system: HS 578T breast
HT29 colon = system: HT29 colon
IGROV1 ovarian = system: IGROV1 ovarian
K-562 leukemia = system: K-562 leukemia
KM12 colon = system: KM12 colon
LOX IMVI melanoma = system: LOX IMVI melanoma
M14 melanoma = system: M14 melanoma
MALME-3M melanoma = system: MALME-3M melanoma
MCF7 breast = system: MCF7 breast
MDA-MB-231 breast = system: MDA-MB-231 breast
MDA-MB-435 = system: MDA-MB-435
MDA-N = system: MDA-N
MOLT-4 leukemia = system: MOLT-4 leukemia
NCI-H23 lung = system: NCI-H23 lung
NCI-H460 lung = system: NCI-H460 lung
NCI-H522 lung = system: NCI-H522 lung
NCI/ADR-RES ovarian = system: NCI/ADR-RES ovarian
OVCAR-3 ovarian = system: OVCAR-3 ovarian
OVCAR-4 ovarian = system: OVCAR-4 ovarian
OVCAR-5 ovarian = system: OVCAR-5 ovarian
OVCAR-8 ovarian = system: OVCAR-8 ovarian
PC-3 prostate = system: PC-3 prostate
RPMI-8226 leukemia = system: RPMI-8226 leukemia
RXF 393 renal = system: RXF 393 renal
SF-268 CNS = system: SF-268 CNS
SF-295 CNS = system: SF-295 CNS
SF-539 CNS = system: SF-539 CNS
SK-MEL-2 melanoma = system: SK-MEL-2 melanoma
SK-MEL-28 melanoma = system: SK-MEL-28 melanoma
SK-MEL-5 melanoma = system: SK-MEL-5 melanoma
SK-OV-3 ovarian = system: SK-OV-3 ovarian
SN12C renal = system: SN12C renal
SNB-19 CNS = system: SNB-19 CNS
SNB-75 CNS = system: SNB-75 CNS
SR leukemia = system: SR leukemia
SW-620 colon = system: SW-620 colon
T-47D breast = system: T-47D breast
TK-10 renal = system: TK-10 renal
U251 CNS = system: U251 CNS
UACC-257 melanoma = system: UACC-257 melanoma
UACC-62 melanoma = system: UACC-62 melanoma
UO-31 renal = system: UO-31 renal

Cc1cc2c(cc1C)[n+](=O)c(C(=O)c1ccccc1)c(C(F)(F)F)n2[O-]
TGI (786-0 renal): 14.7 µM | TGI (A498 renal): 13.6 µM | TGI (A549 NSCLC): 3.88 µM | TGI (ACHN renal): 8.29 µM | TGI (BT-549 breast): 23.9 µM | TGI (CAKI-1 renal): 2.42 µM | TGI (CCRF-CEM leukemia): 8.52 µM | TGI (COLO 205 colon): 2.95 µM | TGI (DU-145 prostate): 3.15 µM | TGI (EKVX NSCLC): 2.97 µM | TGI (HCT-116 colon): 10.6 µM | TGI (HCT-15 colon): > 34.4 µM | TGI (HL-60(TB) leukemia): 5.73 µM | TGI (HOP-62 NSCLC): 2.34 µM | TGI (HOP-92 NSCLC): 1.46 µM | TGI (HS 578T breast): 15.1 µM | TGI (HT29 colon): 9.11 µM | TGI (IGROV1 ovarian): 4.02 µM | TGI (K-562 leukemia): 9.14 µM | TGI (KM12 colon): 5.1 µM | TGI (LOX IMVI melanoma): 7.58 µM | TGI (M14 melanoma): 16.5 µM | TGI (MALME-3M melanoma): 9.89 µM | TGI (MCF7 breast): 14.1 µM | TGI (MDA-MB-231 breast): 6.55 µM | TGI (MDA-MB-435): 11.2 µM | TGI (MDA-N): 14.2 µM | TGI (MOLT-4 leukemia): > 28.3 µM | TGI (NCI-H23 lung): 6.78 µM | TGI (NCI-H460 lung): 2.98 µM | TGI (NCI-H522 lung): 12.9 µM | TGI (NCI/ADR-RES ovarian): > 26.2 µM | TGI (OVCAR-3 ovarian): 3.8 µM | TGI (OVCAR-4 ovarian): 1.71 µM | TGI (OVCAR-5 ovarian): 10.2 µM | TGI (OVCAR-8 ovarian): > 26.8 µM | TGI (PC-3 prostate): 9.19 µM | TGI (RPMI-8226 leukemia): 3.6 µM | TGI (RXF 393 renal): 12.9 µM | TGI (SF-268 CNS): 7.71 µM | TGI (SF-295 CNS): 10.6 µM | TGI (SF-539 CNS): > 35.1 µM | TGI (SK-MEL-2 melanoma): 19.7 µM | TGI (SK-MEL-28 melanoma): 16.4 µM | TGI (SK-MEL-5 melanoma): 3.75 µM | TGI (SK-OV-3 ovarian): > 28.8 µM | TGI (SN12C renal): 10.2 µM | TGI (SNB-19 CNS): 15.5 µM | TGI (SNB-75 CNS): 10.7 µM | TGI (SR leukemia): 2.9 µM | TGI (SW-620 colon): 21.2 µM | TGI (T-47D breast): 5.08 µM | TGI (TK-10 renal): 12.7 µM | TGI (U251 CNS): 16.4 µM | TGI (UACC-257 melanoma): 14.6 µM | TGI (UACC-62 melanoma): 7.72 µM | TGI (UO-31 renal): 4.66 µM
